Patent US10189782B2, “Derivatives of indole for the treatment of cancer, viral infections and lung diseases” (BIOKINESIS, priority 2012, dated 2019)
pIC50: −log10 of the molar value. Where a name gives a salt, the structure may show the parent alone.

Test system: K562 cells
Assay: Cytotoxicity on human cancer cells (WST-1), K562
Type: cell-based
Settings: K562, read-out: K562 IC50 (μM)
Description: Evaluation of Cytotoxicity Effects on Human Cancer Cells
The effects of the compounds of the invention on the viability of human cancer cells were studied on various human cancer cell lines of differing tissue origins (A549, NCI-H460: lung cancer; MDA-MB-231: breast cancer; HCT-116, HT-29: colon cancer; MIA-PaCa-2: pancreatic cancer; K562: leukaemia). All cell lines were obtained from ATCC or ECACC. Cells were cultured in the culture media described below, under a 37° C., 5% CO2 humidified atmosphere, according to a standard operating procedure.
On D0, the cells were plated in 90 μl in 96 wells plates at densities ranging from 500 to 5,000 cells per well.
Following addition of the test substance the cells were protected from light. The solvents (DMSO and specific control solvent were added at the maximal concentration: 10 μl/well (3 wells/condition)).
On D4, the Cell Proliferation Reagent WST-1 was added to each well (10 μl/well), according to a standard operating procedure. The cells were then incubated for 30 min to 4 h at 37° C.-5% CO2. After these incubations, the 96-well plates were shaken thoroughly for 1 min with Multiskan® EX apparatus (Thermo Labsystems, France). The absorbence was measured at 450 nm, the reference wavelength being 620 nm. The analysis of the results was performed with the Ascent software 2.6 (Thermo Labsystems, France), Microsoft Excel 2003 and GraphPad Prism 4.03 softwares to give the concentration of the compounds that induces the death of 50% of the cells (IC50).

Work on `N#CC(=Cc1cccnc1)c1c[nH]c2ccccc12` [W02010/150211-Example 1, reference compound] yielded an IC50 of 21.4 µM.

Same assay, conditions: Table 4, K562 leukaemia cells, WST-1 on D4, read-out: K562 IC50

In order of falling pIC50:
1. N#C/C(=C\c1cc(C#N)ccc1OC(F)(F)F)c1c[nH]c2ccc(Br)cc12 [Example 53, (Z)-3-(2-(5-bromo-1H-indol-3-yl)-2-cyanovinyl)-4-(trifluoromethoxy)benzonitrile]  6.42
2. N#C/C(=C\c1cc(C#N)ccc1O)c1c[nH]c2ccc(Br)cc12 [Example 51, (Z)-3-(2-(5-bromo-1H-indol-3-yl)-2-cyanovinyl)-4-hydroxybenzonitrile]  6.30
3. N#C/C(=C\c1cc(C#N)ccc1OC(F)(F)F)c1c[nH]c2ccc(Cl)cc12 [Example 52, (Z)-3-(2-(5-chloro-1H-indol-3-yl)-2-cyanovinyl)-4-(trifluoromethoxy)benzonitrile]  6.07
4. N#C/C(=C\c1cnccc1O)c1c[nH]c2ccc(Cl)cc12 [Example 50, (Z)-2-(5-chloro-1H-indol-3-yl)-3-(4-hydroxypyridin-3-yl)acrylonitrile]  4.83

Molecular target: T1, Human recombinant MKlp2 motor domain1-519, His tagged (Homo sapiens, UniProt O95235)
T1 construct: Human recombinant MKlp2 motor domain1-519, His tagged; His; purchased Cytoskeleton MP05
T1 sequence (O95235 1-519): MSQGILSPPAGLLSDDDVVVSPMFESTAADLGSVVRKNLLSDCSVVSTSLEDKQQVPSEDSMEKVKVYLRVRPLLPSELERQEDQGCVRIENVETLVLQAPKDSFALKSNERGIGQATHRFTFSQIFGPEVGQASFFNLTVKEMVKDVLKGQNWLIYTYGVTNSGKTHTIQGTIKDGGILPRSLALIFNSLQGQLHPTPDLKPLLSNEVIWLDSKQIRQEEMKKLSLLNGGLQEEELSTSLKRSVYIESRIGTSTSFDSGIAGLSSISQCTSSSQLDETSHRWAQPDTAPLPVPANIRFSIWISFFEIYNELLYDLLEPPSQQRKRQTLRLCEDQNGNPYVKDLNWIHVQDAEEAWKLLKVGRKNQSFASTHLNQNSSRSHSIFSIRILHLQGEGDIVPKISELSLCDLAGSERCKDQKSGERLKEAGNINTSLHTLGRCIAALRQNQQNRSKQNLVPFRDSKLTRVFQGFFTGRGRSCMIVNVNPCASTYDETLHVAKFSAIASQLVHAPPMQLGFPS
Assay: Microtubule stimulated ATPase activity of the MKlp2 motor domain (Kinesin ELIPA Assay Kit)
Type: biochemical
Settings: MKIp2 IC50 (μM), Table 3, 22° C.
Description: Evaluation of Inhibitory Effects on the Microtubule Stimulated ATPase Activity of the MKlp2 Motor Domain.
MKlp2 ATPase activity was measured by monitoring real time free phosphate generation using the Kinesin ELIPA Assay Kit. The assay is based upon an absorbance shift (330 nm-360 nm) that occurs when 2-amino-6-mercapto-7-methylpurine ribonucleoside (MESG) is catalytically converted to 2-amino-6-mercapto-7-methylpurine in the presence of inorganic phosphate (Pi). One molecule of Pi will yield one molecule of 2-amino-6-mercapto-7-methylpurine in an essentially irreversible reaction.
All experiments were performed at 22° C.
Condition 1, compound preparation.
The compounds were dissolved in DMSO at 30× the maximum concentration to be tested. […] DMSO solutions were pipetted directly into each well.
Condition 2, reaction's “motor mix”.
The following were mixed sequentially in the specified order at RT to obtain the “motor mix”.
20 mL: 15 mM Pipes-NaOH pH 7.0, 10 mM MgCl2, 30 μM Tx (Buffer 1).
10 mL: 5× MSEG (ELIPA 1 reagent, Cat. # BK051).
10 mL: 2.5 mg/mL porcine brain microtubules (3×10 mg Cat. # MT002-XL resuspended in 12 mL of Buffer 1).
0.5 mL: 100×PNP (ELIPA 2 reagent, cat. # BK051).
Condition 3, reaction initiation.
The motor mix was pipetted into each well to obtain 80% of total volume. The reaction was initiated by adding a 20% of total volume of 5 mM ATP into each well.
The reactions were measured in a SpectraMax M2 (Molecular Devices) set in kinetic mode and 360 nm absorbance wavelength. The start protocol was 5 second rapid circular mixing, 21 readings, 30 seconds apart.

In order of rising IC50:
1. N#CC(=Cc1cccnc1)c1c[nH]c2ccc(Cl)cc12 [W02010/150211-Example 24, reference compound]  1.1 µM
2. COc1ccc2[nH]cc(C(C#N)=Cc3cnccc3Cl)c2c1 [W02010/150211-Example 47, reference compound]  1.6 µM
3. COc1ccc2[nH]cc(C(C#N)=Cc3cnccc3C)c2c1 [W02010/150211-Example 31, reference compound]  2.3 µM
4. COc1ccc2[nH]cc(C(C#N)=Cc3ccc(F)nc3)c2c1 [W02010/150211-Example 28, reference compound]  2.4 µM
5. COc1ccc2[nH]cc(C(C#N)=Cc3cccnc3)c2c1 [W02010/150211-Example 4, reference compound]  4.2 µM
6. COc1ccc2[nH]cc(C(C#N)=Cc3cccc(C#N)c3)c2c1 [W02010/150211-Example 30, reference compound]  4.4 µM
7. CCOc1ccc2[nH]cc(C(C#N)=Cc3cccnc3)c2c1 [W02010/150211-Example 22, reference compound]  5.2 µM
8. CC(C)Oc1ccc2[nH]cc(C(C#N)=Cc3cccnc3)c2c1 [W02010/150211-Example 23, reference compound]  5.2 µM
9. COc1ccc2[nH]cc(C(C#N)=Cc3ccc(OC)nc3)c2c1 [W02010/150211-Example 52, reference compound]  12.6 µM
10. COc1ccc2c(C(C#N)=Cc3cccnc3)c[nH]c2c1 [W02010/150211-Example 26, reference compound]  26.5 µM

Same assay, conditions: Table 3, 22° C., read-out: MKIp2 IC50

Going from `N#C/C(=C\c1cnccc1Sc1ccc(F)cc1)c1c[nH]c2ccc(Cl)cc12` [Example 27, (Z)-2-(5-chloro-1H-indol-3-yl)-3-(4-((4-fluorophenyl)thio)pyridin-3-yl)acrylonitrile] to `N#C/C(=C\c1cnccc1Sc1ccc(F)cc1)c1c[nH]c2ccc(Br)cc12` [Example 28, (Z)-2-(5-bromo-1H-indol-3-yl)-3-(4-((4-fluorophenyl)thio)pyridin-3-yl)acrylonitrile], the pIC50 rises from 6.52 to 7.05 (0.53 log units).

`N#C/C(=C\c1cnccc1Sc1ccccn1)c1c[nH]c2ccc(Cl)cc12` [Example 30, (Z)-2-(5-chloro-1H-indol-3-yl)-3-(4-(pyridin-2-ylthio)pyridin-3-yl)acrylonitrile] and `N#C/C(=C\c1cnccc1Sc1ccccn1)c1c[nH]c2ccc(Br)cc12` [Example 31, (Z)-2-(5-bromo-1H-indol-3-yl)-3-(4-(pyridin-2-ylthio)pyridin-3-yl)acrylonitrile] are within 0.2 log units of each other in pIC50: 6.52 for the first, 6.40 for the second.

First: N#C/C(=C\c1cnccc1-n1cncn1)c1c[nH]c2ccc(Br)cc12 [Example 32, (Z)-3-(4-(1H-1,2,4-triazol-1-yl)pyridin-3-yl)-2-(5-bromo-1H-indol-3-yl)acrylonitrile]
Second: N#C/C(=C\c1cnccc1-n1cncn1)c1c[nH]c2ccc(Cl)cc12 [Example 33, (Z)-3-(4-(1H-1,2,4-triazol-1-yl)pyridin-3-yl)-2-(5-chloro-1H-indol-3-yl)acrylonitrile]
The pIC50 of the first is 0.22 log units higher: 7.22 for the first, 7.00 for the second.

Compared with `COc1ccncc1/C=C(\C#N)c1c[nH]c2ccc(Cl)cc12` [Example 35, (Z)-2-(5-chloro-1H-indol-3-yl)-3-(4-methoxypyridin-3-yl)acrylonitrile, Hydrochloride], `COc1ccncc1/C=C(\C#N)c1c[nH]c2cc(Cl)ccc12` [Example 47, (Z)-2-(6-chloro-1H-indol-3-yl)-3-(4-methoxypyridin-3-yl)acrylonitrile] is lower in pIC50: over 7.15 for the first, 6.70 for the second.

`CN(C)CCSc1ccncc1/C=C(\C#N)c1c[nH]c2ccc(Br)cc12` [Example 36] and `COc1ccncc1/C=C(\C#N)c1c[nH]c2cc(Br)ccc12` [Example 45, (Z)-2-(6-bromo-1H-indol-3-yl)-3-(4-methoxypyridin-3-yl)acrylonitrile] are within 0.2 log units of each other in pIC50: 6.52 for the first, 6.70 for the second.

First: N#C/C(=C\c1cc(C#N)ccc1Oc1ccc(F)cc1)c1c[nH]c2ccc(Br)cc12 [Example 37, (Z)-3-(2-(5-bromo-1H-indol-3-yl)-2-cyanovinyl)-4-(4-fluorophenoxy)benzonitrile]
Second: COc1ccc(C#N)cc1/C=C(\C#N)c1c[nH]c2ccc(Cl)cc12 [Example 40, (Z)-3-(2-(5-chloro-1H-indol-3-yl)-2-cyanovinyl)-4-methoxybenzonitrile]
The pIC50 of the first is 0.65 log units lower: 6.05 for the first, 6.70 for the second. The second is the more potent here.

`CN(C)c1ccc(C#N)cc1/C=C(\C#N)c1c[nH]c2ccc(Cl)cc12` [Example 41, (Z)-3-(2-(5-chloro-1H-indol-3-yl)-2-cyanovinyl)-4-(dimethylamino)benzonitrile] and `CCSc1ccc(C#N)cc1/C=C(\C#N)c1c[nH]c2ccc(Cl)cc12` [Example 42, (Z)-3-(2-(5-chloro-1H-indol-3-yl)-2-cyanovinyl)-4-(ethylthio)benzonitrile] are within 0.2 log units of each other in pIC50: 6.40 for the first, 6.22 for the second.

First: COc1ccncc1/C=C(\C#N)c1c[nH]c2cc(F)ccc12 [Example 46, (Z)-2-(6-fluoro-1H-indol-3-yl)-3-(4-methoxypyridin-3-yl)acrylonitrile]
Second: COC(=O)CC(=O)n1cc(/C(C#N)=C/c2cnccc2OC)c2cc(Br)ccc21 [Example 59, (Z)-methyl-3-(5-bromo-3-(1-cyano-2-(4-methoxypyridin-3-yl)vinyl)-1H-indol-1-yl)-3-oxopropanoate]
The pIC50 of the first is 0.68 log units higher: 6.92 for the first, 6.24 for the second.

Compound `COc1ccncc1/C=C(\C#N)c1cn(C(=O)OCCN2CCN(C)CC2)c2ccc(Br)cc12` [Example 62, (Z)-2-(4-methylpiperazin-1-yl)ethyl 5-bromo-3-(1-cyano-2-(4-methoxypyridin-3-yl)vinyl)-1H-indole-1-carboxylate] has a pIC50 of 6.46.
